The numbers were not newly measured in patent US20090155355A1, “Particles in a capsule” (Multi Formulations Ltd., priority 2007, published 2009), which cites them from elsewhere.

“Also recorded” adds a separate entry of the source.

The conditions of data set [1]: in vivo.
The conditions of data set [2]: combination with acetaminophen or ibuprofen.
For data set [3] the following is noted: oral, single 400 mg dose, humans.

Regarding `CC(=O)Nc1ccc(O)cc1` [Acetaminophen], in data set [1], the plasma half-life result is reported as “about 2 hrs” and the “time of peak plasma levels” value was 0.5 to 2 h.
With `Cn1c(=O)c2c(ncn2C)n(C)c1=O` [caffeine, Caffeine], the “half-life (mean time)” value (highly variable) is “about 5 hrs”. In addition, under “in vivo”, the “time to peak levels” value is given as “about 1 hr”. In addition, the effect on analgesics entry in data set [2] was “enhance and prolong the effects of acetaminophen; also recorded: enhance the analgesic effects of ibuprofen”.
Take `CC(C)Cc1ccc(C(C)C(=O)O)cc1` (stereo not drawn) [ibuprofen, Ibuprofen]: the “time to maximum plasma concentration” value in data set [3] is “about 1.3 hrs”.
